Some test systems named below: A498 renal; CAKI-1 renal; M14 melanoma; RPMI-8226 leukemia; CCRF-CEM leukemia; ACHN renal; OVCAR-3 ovarian; SF-268 CNS; COLO 205 colon; SF-539 CNS.
What all share (assay): NCI tumour cell line growth inhibition, 48 h

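1) Cells in 96-well plates. 2) Compound, 48 h, 5 concentrations. 3) Linear interpolation between surrounding doses. 4) Unreached endpoint = highest concentration. Abbreviation: GI50, concentration required for 50% inhibition of growth. TGI marks complete inhibition of growth.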 Where a SMILES comes first, the peptide text is derived from it. The star is where a group is joined. Boc = CC(C)(C)OC(=O)*

For `CC(=O)OCC1OC(n2cc([N+](=O)[O-])c(=O)[nH]c2=O)C(OC(C)=O)C(OC(C)=O)C1OC(C)=O` (stereo unspecified), the TGI in the assay with A498 renal, in the assay on CAKI-1 renal, in the assay with M14 melanoma, in the assay with RPMI-8226 leukemia, in the assay on CCRF-CEM leukemia and in the assay on ACHN renal was more than 100 µM in each case. In addition, the TGI with OVCAR-3 ovarian, in the assay with SF-268 CNS and in the assay on COLO 205 colon was more than 100 µM each time.

With `COc1ccc2cc3c4cc5c(cc4cc[n+]3cc2c1OC)OCO5`, the TGI is more than 100 µM in the assay on A498 renal; more than 100 µM in the assay with CAKI-1 renal; 68 µM in the assay on M14 melanoma; 35.1 µM with RPMI-8226 leukemia; 35.5 µM with CCRF-CEM leukemia; more than 100 µM in the assay with ACHN renal. Moreover, the TGI in the assay on OVCAR-3 ovarian was 21.4 µM; with SF-539 CNS, more than 58.5 µM; in the assay with SF-268 CNS it was 18.5 µM; with COLO 205 colon, 6.73 µM.

Turning to `O=c1cc(N=P(c2ccccc2)(c2ccccc2)c2ccccc2)n(-c2ccccc2)c(=O)n1-c1ccccc1`, the TGI in the assay on A498 renal was 21.1 µM; with CAKI-1 renal, more than 100 µM; with M14 melanoma, more than 100 µM; with RPMI-8226 leukemia, 33 µM; in the assay on CCRF-CEM leukemia, 82.5 µM; in the assay with ACHN renal, 45.4 µM. The results for the TGI with OVCAR-3 ovarian, in the assay with SF-539 CNS and in the assay on SF-268 CNS were 32.3 µM, 17.7 µM and more than 100 µM, respectively.

Take `CC(C)(C)OC(=O)NCC(=O)NCC(=O)NCC(=O)NCC(=O)O` (Boc-GGGG-OH): the TGI with A498 renal, in the assay on CAKI-1 renal, in the assay on M14 melanoma, with RPMI-8226 leukemia, with CCRF-CEM leukemia and with ACHN renal was more than 100 µM each time. The TGI with OVCAR-3 ovarian, in the assay with SF-539 CNS, in the assay with SF-268 CNS and in the assay on COLO 205 colon was more than 100 µM each time.

For the compound `COc1cc2c(cc1-c1c(C)noc1C)cc(C)c(=O)n2Cc1ccccn1`, the GI50 in the assay on A498 renal was 0.864 µM; with CAKI-1 renal, 0.284 µM; in the assay on M14 melanoma, 0.797 µM; in the assay on RPMI-8226 leukemia, 0.307 µM; in the assay on CCRF-CEM leukemia, 1.57 µM; in the assay with ACHN renal, 1.45 µM. Besides, the GI50 in the assay with OVCAR-3 ovarian is 1.8 µM; in the assay with SF-539 CNS, 0.983 µM; in the assay on SF-268 CNS, 4.22 µM; in the assay with COLO 205 colon, 0.566 µM. The TGI in the assay on A498 renal was 5.12 µM; with CAKI-1 renal, 23.2 µM; in the assay on M14 melanoma, more than 100 µM; in the assay with RPMI-8226 leukemia it was 3.86 µM; with CCRF-CEM leukemia, more than 100 µM; in the assay with ACHN renal, more than 100 µM. The TGI was 11.2 µM in the assay on OVCAR-3 ovarian, 13.2 µM in the assay with SF-539 CNS, more than 100 µM in the assay with SF-268 CNS and 22.2 µM in the assay on COLO 205 colon.

`O=C(c1cc2ccccc2cc1O)N1CCCCC1`: the TGI in the assay with A498 renal was 63.2 µM; in the assay with CAKI-1 renal, more than 100 µM; in the assay on M14 melanoma, 64.9 µM; in the assay on RPMI-8226 leukemia, 56.3 µM; in the assay with CCRF-CEM leukemia, 42.6 µM; in the assay on ACHN renal, more than 100 µM. The TGI with SF-539 CNS, in the assay with SF-268 CNS and with COLO 205 colon was more than 100 µM in each case.

`O=C1c2cc3c(cc2CC1Br)CCC3` (stereo unspecified): the TGI in the assay with A498 renal turned out to be 32.2 µM; with CAKI-1 renal, 3.23 µM; with M14 melanoma, 2.85 µM; with RPMI-8226 leukemia, 4.45 µM; in the assay on CCRF-CEM leukemia it was 2.18 µM; in the assay with ACHN renal, 13.1 µM. For the same compound, the TGI was found to be 3.86 µM in the assay on OVCAR-3 ovarian, 4.2 µM with SF-539 CNS, 28.5 µM with SF-268 CNS and 3.85 µM in the assay on COLO 205 colon.

With `C=CCNC(=S)/N=C/c1c(O)c2ccccc2oc1=O`, the TGI in the assay with A498 renal was more than 100 µM; in the assay on CAKI-1 renal, 82.6 µM; in the assay with M14 melanoma, more than 100 µM; with RPMI-8226 leukemia it was more than 100 µM; in the assay with CCRF-CEM leukemia, more than 100 µM; in the assay with ACHN renal, more than 100 µM. For the same compound, the TGI with OVCAR-3 ovarian, in the assay with SF-539 CNS, in the assay with SF-268 CNS and in the assay with COLO 205 colon was more than 100 µM each time.

`Nc1c(-c2cccc3ccccc23)c2ccc([N+](=O)[O-])cc2c(=O)n1-c1nc2ccccc2s1`: the TGI in the assay with A498 renal was more than 100 µM; with CAKI-1 renal, more than 31.6 µM; with M14 melanoma, more than 38.9 µM; in the assay with RPMI-8226 leukemia, more than 49.6 µM; in the assay on CCRF-CEM leukemia, more than 100 µM; in the assay on ACHN renal, more than 100 µM. Also, the TGI with OVCAR-3 ovarian is more than 37 µM; in the assay on SF-539 CNS it was 14.8 µM; in the assay on SF-268 CNS, more than 31.7 µM; with COLO 205 colon, more than 100 µM.

With `CC(C)(C)NC(=O)/C(=C\Sc1ccccc1)c1ccc2c(c1)OCO2`, the TGI with A498 renal is 59 µM; in the assay on CAKI-1 renal, more than 100 µM; in the assay on M14 melanoma, 54.8 µM; in the assay on RPMI-8226 leukemia it was 94.4 µM; in the assay with CCRF-CEM leukemia, more than 100 µM; with ACHN renal, more than 100 µM. The TGI in the assay with OVCAR-3 ovarian was more than 100 µM; with SF-539 CNS it was more than 100 µM; in the assay on SF-268 CNS, 52.3 µM; with COLO 205 colon it was 53.4 µM.

`Cc1cn(C2OC(C)(CO)C(O)C2O)c(=O)[nH]c1=O` (stereo unspecified): the TGI in the assay on A498 renal, in the assay on CAKI-1 renal, in the assay on M14 melanoma, with RPMI-8226 leukemia, with CCRF-CEM leukemia and in the assay on ACHN renal was more than 100 µM in each case. Further, the TGI with OVCAR-3 ovarian, with SF-539 CNS, with SF-268 CNS and in the assay on COLO 205 colon was more than 100 µM throughout.

Turning to `Brc1cccc(Nc2nc(-c3cccs3)nc3ccc(Br)cc23)c1`, the TGI is more than 100 µM in the assay on A498 renal; 68.5 µM in the assay with CAKI-1 renal; 71.3 µM in the assay with M14 melanoma; more than 100 µM in the assay on RPMI-8226 leukemia; more than 100 µM in the assay with CCRF-CEM leukemia; 91 µM in the assay with ACHN renal. The TGI is 82.1 µM with OVCAR-3 ovarian, more than 100 µM in the assay with SF-539 CNS, more than 100 µM in the assay with SF-268 CNS and more than 100 µM in the assay with COLO 205 colon.

`COc1cc(NS(C)(=O)=O)ccc1N1Cc2cnc3ccc4[nH]c(C)cc1c4c23`: the TGI is more than 100 µM with A498 renal; 74.5 µM in the assay with CAKI-1 renal; more than 100 µM with M14 melanoma; 88.2 µM with RPMI-8226 leukemia; more than 100 µM in the assay with CCRF-CEM leukemia; more than 100 µM with ACHN renal. Besides, the TGI with OVCAR-3 ovarian was more than 100 µM; with SF-268 CNS, 63.4 µM; in the assay with COLO 205 colon, more than 100 µM.

These data come from PubChem BioAssay (NCI).
